Results: the NIST ThermoML archive (doi:10.1016/j.jct.2014.07.005)

Key:
[1] = mn = molality of the nth substance listed, in mol/kg; details: 100 kPa, Liquid; for viscosity: Capillary tube (Ostwald / Ubbelohde) method; for mass density: Vibrating tube method
[2] = 100 kPa, Liquid, Capillary tube (Ostwald / Ubbelohde) method

CCCCCCCCn1cc[n+](C)c1.[Br-] [1-methyl-3-octylimidazolium bromide] + O
[1]
Details	mass density, m1 = 0.0035 [kg/m3]	mass density, m1 = 0.0111 [kg/m3]	mass density, m1 = 0.0185 [kg/m3]	viscosity, m1 = 0.0035 [mPa·s]	viscosity, m1 = 0.0111 [mPa·s]	viscosity, m1 = 0.0185 [mPa·s]
288.15 K	999.275	999.611	999.913	1.146	1.151	1.154
293.15 K	998.364	998.697	998.983	1.006	1.013	1.021
298.15 K	997.197	997.499	997.781	0.895	0.9	0.904
303.15 K	995.792	996.09	996.32	0.8	0.805	0.807
308.15 K	994.141	994.373	994.59	0.721	0.723	0.728
313.15 K	992.331	992.622	992.876	0.655	0.659	0.66

O [water]
[2]
Details	viscosity [mPa·s]
288.15 K	1.139
293.15 K	1.002
298.15 K	0.89
303.15 K	0.798
308.15 K	0.719
313.15 K	0.653

O [water] + CCCCCCCCn1cc[n+](C)c1.[Br-]
[1], m2 = 0
Details	viscosity [mPa·s]
288.15 K	1.139
293.15 K	1.002
298.15 K	0.89
303.15 K	0.798
308.15 K	0.719
313.15 K	0.653
